Source: the NIST ThermoML archive (doi:10.1016/j.fluid.2016.03.016)
Numbers after ± are expanded uncertainties.

Assay: mn = molality of the nth substance listed, in mol/kg
Conditions: 100 kPa, Liquid, Vibrating tube method

With `O` [water] + O=C[C@H](O)[C@@H](O)[C@H](O)[C@H](O)CO the mass density (308.15 K, m2 = 0) was 994.063 ± 0.042 kg/m3.

Work on `CCC(=O)[O-].C[NH+]1CCCC1=O` [N-methyl-2-oxopyrrolidinium propionate] + O yielded a mass density (288.15 K, m1 = 0.1) of 1000.28 ± 0.042 kg/m3, a mass density (288.15 K, m1 = 0.15) of 1000.81 ± 0.043 kg/m3 and a mass density (288.15 K, m1 = 0.2) of 1001.35 ± 0.045 kg/m3. For the same molecule, the mass density (288.15 K, m1 = 0.25) was 1001.89 ± 0.047 kg/m3, the mass density (298.15 K, m1 = 0.1) was 998.097 ± 0.042 kg/m3 and the mass density (298.15 K, m1 = 0.15) was 998.566 ± 0.044 kg/m3. It also gave a mass density (298.15 K, m1 = 0.2) of 999.034 ± 0.045 kg/m3, a mass density (298.15 K, m1 = 0.25) of 999.503 ± 0.046 kg/m3 and a mass density (308.15 K, m1 = 0.1) of 994.976 ± 0.044 kg/m3. For the same molecule, the mass density (308.15 K, m1 = 0.15) was 995.384 ± 0.045 kg/m3, the mass density (308.15 K, m1 = 0.2) was 995.792 ± 0.046 kg/m3 and the mass density (308.15 K, m1 = 0.25) was 996.2 ± 0.048 kg/m3. It also gave a mass density (318.15 K, m1 = 0.1) of 990.978 ± 0.045 kg/m3, a mass density (318.15 K, m1 = 0.15) of 991.337 ± 0.047 kg/m3 and a mass density (318.15 K, m1 = 0.2) of 991.696 ± 0.048 kg/m3. The mass density (318.15 K, m1 = 0.25) was 992.055 ± 0.049 kg/m3.

`C[NH+]1CCCC1=O.O=C[O-]` [N-methyl-2-oxopyrrolidinium formate] + O showed a mass density (288.15 K, m1 = 0.1) of 1000.87 ± 0.041 kg/m3, a mass density (288.15 K, m1 = 0.15) of 1001.64 ± 0.043 kg/m3 and a mass density (288.15 K, m1 = 0.2) of 1002.42 ± 0.044 kg/m3. For the same molecule, the mass density (288.15 K, m1 = 0.25) was 1003.19 ± 0.046 kg/m3, the mass density (298.15 K, m1 = 0.1) was 998.697 ± 0.042 kg/m3 and the mass density (298.15 K, m1 = 0.15) was 999.401 ± 0.043 kg/m3. The mass density (298.15 K, m1 = 0.2) was 1000.1 ± 0.044 kg/m3, the mass density (298.15 K, m1 = 0.25) was 1000.81 ± 0.045 kg/m3 and the mass density (308.15 K, m1 = 0.1) was 995.571 ± 0.043 kg/m3. It also gave a mass density (308.15 K, m1 = 0.15) of 996.217 ± 0.044 kg/m3, a mass density (308.15 K, m1 = 0.2) of 996.862 ± 0.045 kg/m3 and a mass density (308.15 K, m1 = 0.25) of 997.508 ± 0.046 kg/m3. It also gave a mass density (318.15 K, m1 = 0.1) of 991.633 ± 0.045 kg/m3, a mass density (318.15 K, m1 = 0.15) of 992.225 ± 0.046 kg/m3 and a mass density (318.15 K, m1 = 0.2) of 992.816 ± 0.047 kg/m3. The mass density (318.15 K, m1 = 0.25) was 993.408 ± 0.048 kg/m3.

For `O=C[C@H](O)[C@@H](O)[C@H](O)[C@H](O)CO` [D-glucose] + O, the mass density (288.15 K, m1 = 0.04761) was 1002.39 ± 0.041 kg/m3, the mass density (288.15 K, m1 = 0.08797) was 1005.11 ± 0.043 kg/m3 and the mass density (288.15 K, m1 = 0.09893) was 1005.85 ± 0.044 kg/m3. For the same molecule, the mass density (288.15 K, m1 = 0.1555) was 1009.58 ± 0.047 kg/m3, the mass density (288.15 K, m1 = 0.1767) was 1010.96 ± 0.048 kg/m3 and the mass density (288.15 K, m1 = 0.2008) was 1012.51 ± 0.05 kg/m3. The mass density (298.15 K, m1 = 0.04761) was 1000.27 ± 0.04 kg/m3, the mass density (298.15 K, m1 = 0.08797) was 1002.97 ± 0.043 kg/m3 and the mass density (298.15 K, m1 = 0.09893) was 1003.7 ± 0.043 kg/m3. For the same molecule, the mass density (298.15 K, m1 = 0.1276) was 1005.58 ± 0.045 kg/m3, the mass density (298.15 K, m1 = 0.2008) was 1010.31 ± 0.049 kg/m3 and the mass density (308.15 K, m1 = 0.04761) was 997.256 ± 0.042 kg/m3. The mass density (308.15 K, m1 = 0.08797) was 999.92 ± 0.042 kg/m3, the mass density (308.15 K, m1 = 0.09893) was 1000.64 ± 0.042 kg/m3 and the mass density (308.15 K, m1 = 0.1276) was 1002.5 ± 0.044 kg/m3. The mass density (308.15 K, m1 = 0.1555) was 1004.29 ± 0.045 kg/m3, the mass density (308.15 K, m1 = 0.1767) was 1005.64 ± 0.047 kg/m3 and the mass density (318.15 K, m1 = 0.04761) was 993.41 ± 0.043 kg/m3. It also gave a mass density (318.15 K, m1 = 0.08797) of 996.056 ± 0.043 kg/m3, a mass density (318.15 K, m1 = 0.09893) of 996.767 ± 0.043 kg/m3 and a mass density (318.15 K, m1 = 0.1276) of 998.624 ± 0.043 kg/m3. It also gave a mass density (318.15 K, m1 = 0.1555) of 1000.4 ± 0.044 kg/m3, a mass density (318.15 K, m1 = 0.1767) of 1001.75 ± 0.045 kg/m3 and a mass density (318.15 K, m1 = 0.2008) of 1003.26 ± 0.046 kg/m3.

Molecule `O=C[C@H](O)[C@@H](O)[C@H](O)CO` [D-xylose] + O has a mass density (288.15 K, m1 = 0.05973) of 1002.39 ± 1.2 kg/m3, a mass density (288.15 K, m1 = 0.06763) of 1002.82 ± 1.2 kg/m3 and a mass density (288.15 K, m1 = 0.09347) of 1004.22 ± 1.2 kg/m3. It also gave a mass density (288.15 K, m1 = 0.1376) of 1006.58 ± 1.2 kg/m3, a mass density (288.15 K, m1 = 0.1501) of 1007.24 ± 1.2 kg/m3 and a mass density (288.15 K, m1 = 0.1698) of 1008.28 ± 1.2 kg/m3. It also gave a mass density (288.15 K, m1 = 0.1873) of 1009.21 ± 1.2 kg/m3, a mass density (298.15 K, m1 = 0.05973) of 1000.28 ± 1.2 kg/m3 and a mass density (298.15 K, m1 = 0.06763) of 1000.71 ± 1.2 kg/m3. For the same molecule, the mass density (298.15 K, m1 = 0.09347) was 1002.09 ± 1.2 kg/m3, the mass density (298.15 K, m1 = 0.1376) was 1004.43 ± 1.2 kg/m3 and the mass density (298.15 K, m1 = 0.1501) was 1005.09 ± 1.2 kg/m3. For the same molecule, the mass density (298.15 K, m1 = 0.1698) was 1006.12 ± 1.2 kg/m3, the mass density (298.15 K, m1 = 0.1873) was 1007.03 ± 1.2 kg/m3 and the mass density (308.15 K, m1 = 0.05973) was 997.274 ± 1.2 kg/m3. It also gave a mass density (308.15 K, m1 = 0.06763) of 997.695 ± 1.2 kg/m3, a mass density (308.15 K, m1 = 0.09347) of 999.067 ± 1.2 kg/m3 and a mass density (308.15 K, m1 = 0.1376) of 1001.39 ± 1.2 kg/m3. It also gave a mass density (308.15 K, m1 = 0.1501) of 1002.04 ± 1.2 kg/m3, a mass density (308.15 K, m1 = 0.1698) of 1003.07 ± 1.2 kg/m3 and a mass density (308.15 K, m1 = 0.1873) of 1003.97 ± 1.2 kg/m3. The mass density (318.15 K, m1 = 0.05973) was 993.436 ± 1.2 kg/m3, the mass density (318.15 K, m1 = 0.06763) was 993.851 ± 1.2 kg/m3 and the mass density (318.15 K, m1 = 0.09347) was 995.213 ± 1.2 kg/m3. For the same molecule, the mass density (318.15 K, m1 = 0.1376) was 997.518 ± 1.2 kg/m3, the mass density (318.15 K, m1 = 0.1501) was 998.164 ± 1.2 kg/m3 and the mass density (318.15 K, m1 = 0.1698) was 999.183 ± 1.2 kg/m3. For the same molecule, the mass density (318.15 K, m1 = 0.1873) was 1000.08 ± 1.2 kg/m3.
